For experiment [1], the system named is OA articular chondrocytes. The experiment is described as follows: Expression of OA chondrocyte phenotype marker genes by RT-qPCR after peptide exposure. On the set-up: key: [+] denotes a significantly increased expression of chondrogenic marker BAPX1/NKX3.2 or a decreased expression of OA chondrocyte phenotypic markers ALP, MMP13, ADAMTS5, COX2, COL10A and RUNX2 in OA articular chondrocytes, in comparison to untreated OA articular chondrocytes.; [−] denotes the absence of a significant effort or a significantly decreased expression of chondrogenic marker BAPX1/NKX3.2 or an increased expression of OA chondrocyte phenotypic markers ALP, MMP13, ADAMTS5, COX2, COL10A and RUNX2 in OA articular chondrocytes, in comparison to untreated OA articular chondrocytes. Particulars: Table 3, N- and C-terminally truncated peptides; vs untreated OA articular chondrocytes. The class given is cell-based, human. Background: Real-time PCR tracks product formation cycle by cycle.

Experiment [2] has as its system OA articular chondrocytes. The experiment is described as above. Also on record: key to ADAMTS5 expression: [+] denotes a significantly increased expression of chondrogenic marker BAPX1/NKX3.2 or a decreased expression of OA chondrocyte phenotypic markers ALP, MMP13, ADAMTS5, COX2, COL10A and RUNX2 in OA articular chondrocytes, in comparison to untreated OA articular chondrocytes.; [−] denotes the absence of a significant effort or a significantly decreased expression of chondrogenic marker BAPX1/NKX3.2 or an increased expression of OA chondrocyte phenotypic markers ALP, MMP13, ADAMTS5, COX2, COL10A and RUNX2 in OA articular chondrocytes, in comparison to untreated OA articular chondrocytes. Type of experiment: cell-based, human. As to conditions: Table 3, N- and C-terminally truncated peptides; vs untreated OA articular chondrocytes.

For “17 (APEGYAAYYSEGESAFPLNS; homo sapiens) [compound 17]”, in experiment [1], the ALP expression result was “+”, the BAPX1/NKX3.2 expression entry is “+”, the COL10A expression result was “+” and the COX-2 expression entry is reported as “+”. In experiment [1], the MMP13 expression entry is given as “−” and the RUNX2 expression entry is on record as “+”. The ADAMTS5 expression result in experiment [2] is on record as “+”.

For the substance “22 (AAYYSEGESAFPLNS; homo sapiens) [compound 22]”, in experiment [1], the ALP expression entry is “+”, the BAPX1/NKX3.2 expression entry is given as “+”, the COL10A expression result was “+” and the COX-2 expression result is “+”. For the same substance, in experiment [1], the MMP13 expression result was “+” and the RUNX2 expression result is reported as “+”. In addition, in experiment [2], the ADAMTS5 expression result is reported as “+”.

Consider “28 (YSEGESAFPLNSYMN; homo sapiens) [compound 28]”, for which, in experiment [1], the ALP expression entry was “+”, the BAPX1/NKX3.2 expression result is reported as “+”, the COL10A expression result is on record as “+” and the COX-2 expression entry is “+”. For the same substance, in experiment [1], the MMP13 expression result was “+” and the RUNX2 expression entry is given as “+”. The ADAMTS5 expression entry in experiment [2] is listed as “+”.

Regarding “31 (YSEGESAFPLNSYMNATN; homo sapiens) [compound 31]”, in experiment [1], the ALP expression entry is recorded as “+”, the BAPX1/NKX3.2 expression result was “+”, the COL10A expression result is listed as “+” and the COX-2 expression result is recorded as “+”. In experiment [1], the MMP13 expression result is recorded as “+” and the RUNX2 expression entry is “+”. Besides, in experiment [2], the ADAMTS5 expression entry is “+”.

For the substance “35 (PEGYAAYYSEGESAFPLNSYMNATNHA; homo sapiens) [compound 35]”, in experiment [1], the ALP expression entry is “+”, the BAPX1/NKX3.2 expression entry was “+”, the COL10A expression entry is on record as “+” and the COX-2 expression entry is on record as “+”. In addition, in experiment [1], the MMP13 expression result is recorded as “+” and the RUNX2 expression entry is listed as “+”. The ADAMTS5 expression result in experiment [2] is “+”.

For “30 (YSEGESAFPLNSYMNAT; homo sapiens) [compound 30]”, in experiment [1], the ALP expression result is recorded as “+”, the BAPX1/NKX3.2 expression entry is listed as “+”, the COL10A expression result was “+” and the COX-2 expression entry is “+”. Moreover, in experiment [1], the MMP13 expression entry is given as “+” and the RUNX2 expression entry is recorded as “+”. The ADAMTS5 expression result in experiment [2] is on record as “+”.

With “24 (YYSEGESAFPLNS; homo sapiens) [compound 24]”, in experiment [1], the ALP expression entry is “+”, the BAPX1/NKX3.2 expression result was “+”, the COL10A expression entry is “+” and the COX-2 expression entry was “+”. Besides, in experiment [1], the MMP13 expression entry was “+” and the RUNX2 expression entry is recorded as “+”. Also, in experiment [2], the ADAMTS5 expression entry is recorded as “+”.

Take “18 (PEGYAAYYSEGESAFPLNS; homo sapiens) [compound 18]”: in experiment [1], the ALP expression entry is “+”, the BAPX1/NKX3.2 expression result is listed as “+”, the COL10A expression entry was “+” and the COX-2 expression result is “+”. For the same substance, in experiment [1], the MMP13 expression result is listed as “−” and the RUNX2 expression result was “+”. In addition, in experiment [2], the ADAMTS5 expression result is reported as “+”.

For “20 (GYAAYYSEGESAFPLNS; homo sapiens) [compound 20]”, in experiment [1], the ALP expression entry is “+”, the BAPX1/NKX3.2 expression entry is given as “+”, the COL10A expression entry is “+” and the COX-2 expression result was “+”. For the same substance, in experiment [1], the MMP13 expression result is on record as “+” and the RUNX2 expression result is given as “+”. The ADAMTS5 expression entry in experiment [2] is “+”.

“33 (YSEGESAFPLNSYMNATNHA; homo sapiens) [compound 33]”: in experiment [1], the ALP expression result is given as “+”, the BAPX1/NKX3.2 expression result is “+”, the COL10A expression entry is recorded as “+” and the COX-2 expression result is given as “+”. Besides, in experiment [1], the MMP13 expression result was “+” and the RUNX2 expression result is reported as “+”. Also, the ADAMTS5 expression entry in experiment [2] is “+”.

On to “32 (YSEGESAFPLNSYMNATNH; homo sapiens) [compound 32]”, for which, in experiment [1], the ALP expression entry is listed as “+”, the BAPX1/NKX3.2 expression entry is given as “+”, the COL10A expression entry is “+” and the COX-2 expression entry is on record as “+”. Besides, in experiment [1], the MMP13 expression entry is reported as “+” and the RUNX2 expression entry is recorded as “+”. Besides, in experiment [2], the ADAMTS5 expression entry is “+”.

For “36 (EGYAAYYSEGESAFPLNSYMNATNHA; homo sapiens) [compound 36]”, in experiment [1], the ALP expression entry was “+”, the BAPX1/NKX3.2 expression result is given as “+”, the COL10A expression entry is reported as “+” and the COX-2 expression entry was “+”. For the same substance, in experiment [1], the MMP13 expression result was “+” and the RUNX2 expression entry is “+”. Also, the ADAMTS5 expression entry in experiment [2] is on record as “+”.

Take “23 (AYYSEGESAFPLNS; homo sapiens) [compound 23]”: in experiment [1], the ALP expression result is “+”, the BAPX1/NKX3.2 expression entry is given as “+”, the COL10A expression result was “+” and the COX-2 expression result was “+”. For the same substance, in experiment [1], the MMP13 expression result is “+” and the RUNX2 expression entry is on record as “+”. The ADAMTS5 expression result in experiment [2] is recorded as “+”.

Regarding “19 (EGYAAYYSEGESAFPLNS; homo sapiens) [compound 19]”, in experiment [1], the ALP expression result is “+”, the BAPX1/NKX3.2 expression result is “+”, the COL10A expression result is listed as “+” and the COX-2 expression entry is given as “+”. Besides, in experiment [1], the MMP13 expression result is on record as “+” and the RUNX2 expression result is reported as “+”. Also, in experiment [2], the ADAMTS5 expression result is on record as “+”.

Consider “29 (YSEGESAFPLNSYMNA; homo sapiens) [compound 29]”, for which, in experiment [1], the ALP expression entry is “+”, the BAPX1/NKX3.2 expression entry is recorded as “+”, the COL10A expression entry is “+” and the COX-2 expression entry is reported as “+”. Moreover, in experiment [1], the MMP13 expression result is listed as “+” and the RUNX2 expression result is “+”. For the same substance, in experiment [2], the ADAMTS5 expression entry is listed as “+”.

With “34 (APEGYAAYYSEGESAFPLNSYMNATNHA; homo sapiens) [compound 34]”, in experiment [1], the ALP expression entry was “+”, the BAPX1/NKX3.2 expression result is “+”, the COL10A expression result is on record as “+” and the COX-2 expression result is recorded as “+”. Also, in experiment [1], the MMP13 expression result is on record as “+” and the RUNX2 expression result is “+”. In addition, in experiment [2], the ADAMTS5 expression result was “+”.

Turning to “21 (YAAYYSEGESAFPLNS; homo sapiens) [compound 21]”, in experiment [1], the ALP expression entry is “+”, the BAPX1/NKX3.2 expression entry is “+”, the COL10A expression result was “+” and the COX-2 expression result was “+”. In addition, in experiment [1], the MMP13 expression result was “+” and the RUNX2 expression entry is reported as “+”. Besides, the ADAMTS5 expression entry in experiment [2] is listed as “+”.

Take “25 (YSEGESAFPLNS; homo sapiens) [compound 25]”: in experiment [1], the ALP expression result is “+”, the BAPX1/NKX3.2 expression entry is recorded as “+”, the COL10A expression entry is “+” and the COX-2 expression entry is on record as “+”. For the same substance, in experiment [1], the MMP13 expression entry is “+” and the RUNX2 expression entry was “+”. In experiment [2], the ADAMTS5 expression result was “+”.

With “27 (YSEGESAFPLNSYM; homo sapiens) [compound 27]”, in experiment [1], the ALP expression result is “+”, the BAPX1/NKX3.2 expression entry is listed as “+”, the COL10A expression entry is reported as “+” and the COX-2 expression result was “+”. Also, in experiment [1], the MMP13 expression result is “+” and the RUNX2 expression entry is “+”. In experiment [2], the ADAMTS5 expression result is “+”.

(Values after patent publication US20220023386A1, “METHOD FOR THE TREATMENT OR PREVENTION OF OSTEOARTHRITIS” (Chondropeptix B.V., priority 2016, published 2022).)
